# Key:
# [1] = biological target: T1, cloned human δ opioid receptor (Homo sapiens, UniProt P41143); assay: [3H]diprenorphine receptor binding, δ opioid receptor; conditions: [3H]diprenorphine displacement; read-out: affinity (expressed as Ki value) to the δ opioid receptor
# T1 construct: expressed in transfected cells
# Description: (§1) Ki values were obtained by Cheng-Prusoff corrections of IC50 values.
# (§2) After dilution in buffer A and homogenization as before, membrane proteins (10-80 μg) in 250 μL were added to mixtures containing test compound and [^3H]diprenorphine (0.5 to 1.0 nM, 40,000 to 50,000 dpm) in 250 μL of buffer A in 96-well deep-well polystyrene titer plates (Beckman). After incubation at room temperature for one hour, the samples were filtered through GF/B filters that had been presoaked in a solution of 0.5% (w/v) polyethylenimine and 0.1% (w/v) bovine serum albumin in water. The filters were rinsed 4 times with 1 mL of cold 50 mM Tris HCl, pH 7.8 and radioactivity remaining on the filters determined by scintillation spectroscopy. Nonspecific binding was determined by the minimum values of the titration curves and was confirmed by separate assay wells containing 10 μM naloxone.
# (§3) To determine the equilibrium dissociation constant for the inhibitors (Ki), radioligand bound (cpm) in the presence of various concentrations of test compounds was measured. The concentration to give half-maximal inhibition (EC50) of radioligand binding was determined from a best nonlinear regression fit to the following equation,
# (§4) The nonlinear regression fit was performed using the program Prism® (GraphPad Software, San Diego, Calif.). The Ki values were then determined from the EC50 values by the following equation, […]
# [2] = biological target: T2, cloned human κ opioid receptor (Homo sapiens, UniProt P41145); assay: [3H]diprenorphine receptor binding, κ opioid receptor; conditions: [3H]diprenorphine displacement; read-out: affinity (expressed as Ki value) to the κ opioid receptor
# T2 construct: expressed in transfected cells
# Description: as §1, §2, §3, §4
# T2 sequence (P41145 whole entry): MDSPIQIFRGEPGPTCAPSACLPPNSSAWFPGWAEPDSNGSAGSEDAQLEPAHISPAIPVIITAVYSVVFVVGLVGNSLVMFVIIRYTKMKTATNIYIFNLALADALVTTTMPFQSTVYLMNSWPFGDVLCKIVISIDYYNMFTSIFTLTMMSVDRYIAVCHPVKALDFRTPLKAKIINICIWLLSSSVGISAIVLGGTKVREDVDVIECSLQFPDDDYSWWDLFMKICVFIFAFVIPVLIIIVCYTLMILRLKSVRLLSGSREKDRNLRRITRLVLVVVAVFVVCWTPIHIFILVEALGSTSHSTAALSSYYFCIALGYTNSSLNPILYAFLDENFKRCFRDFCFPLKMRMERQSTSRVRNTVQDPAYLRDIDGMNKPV
# T1 sequence (P41143 whole entry): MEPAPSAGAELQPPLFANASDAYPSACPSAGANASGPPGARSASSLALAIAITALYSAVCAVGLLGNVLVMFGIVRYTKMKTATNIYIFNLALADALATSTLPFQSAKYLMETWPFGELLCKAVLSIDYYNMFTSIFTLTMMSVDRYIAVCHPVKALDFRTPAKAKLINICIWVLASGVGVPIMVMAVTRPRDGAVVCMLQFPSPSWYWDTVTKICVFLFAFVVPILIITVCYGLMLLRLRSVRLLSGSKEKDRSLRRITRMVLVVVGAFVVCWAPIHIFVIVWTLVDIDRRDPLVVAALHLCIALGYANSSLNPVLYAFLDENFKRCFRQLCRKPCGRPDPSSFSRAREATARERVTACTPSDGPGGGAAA
smiles,measurement,setting,value
"C[C@H]1CN(C[C@H](Cc2ccccc2)C(=O)N[C@@H](CCCN)C(=O)O)CC[C@@]1(C)c1cccc(O)c1 [Example 28, 5-Amino-2(S)-{2(S)-benzyl-3-[4(R)-(3-hydroxy-phenyl)-3(R),4-dimethyl-piperidin-1-yl]-propionylamino}-pentanoic acid]",Ki,[1],510 nM
same,Ki,[2],200 nM
